The values below come from patent US9005905B2, “Method of identifying transmembrane protein-interacting compounds” (Omeros Corporation, priority 2002, dated 2015).

Like-named read-outs stand apart in the source and are kept apart here.

Test [1] concerns the target mu and delta opioid receptors (Homo sapiens, UniProt P35372+P41143). Particulars: cited from earlier work.
The target in test [2] is T1, D1-NLS-GFP (Homo sapiens, UniProt P21728, A340R/D336K/F337K/R338F).
T1 construct: expressed in transfected cells; host or cells: HEK cells (HEK293T)
T1 sequence (P21728 whole entry D336K/F337K/R338F/A340R): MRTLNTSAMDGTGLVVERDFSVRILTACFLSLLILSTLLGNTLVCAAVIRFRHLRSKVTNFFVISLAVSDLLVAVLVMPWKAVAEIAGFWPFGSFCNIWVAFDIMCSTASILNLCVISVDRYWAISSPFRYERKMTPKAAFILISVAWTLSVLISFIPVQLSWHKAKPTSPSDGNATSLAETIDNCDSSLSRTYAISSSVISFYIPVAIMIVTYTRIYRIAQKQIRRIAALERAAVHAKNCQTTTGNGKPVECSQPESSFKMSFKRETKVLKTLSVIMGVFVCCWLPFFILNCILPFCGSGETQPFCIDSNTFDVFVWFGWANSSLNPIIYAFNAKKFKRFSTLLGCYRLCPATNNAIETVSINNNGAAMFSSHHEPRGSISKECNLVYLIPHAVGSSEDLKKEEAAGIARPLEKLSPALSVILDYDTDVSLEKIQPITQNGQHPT
Description: D1-NLS-GFP (with D1-WT) translocation, antagonist dose response, HEK cells, confocal microscopy. Particulars: 48 hours. In kind it is cell-based. The protocol: Test compounds were prepared in a stock solution of 1 millimolar concentration and diluted in growth medium to achieve a final concentration ranging between 10 nanomolar and 10 micromolar when added to cell plates. Fresh compound-containing medium was added to cells at 6 hours, 22 hours, 30 hours and 42 hours after transfection.
Cells were visualised using the LSM510 Zeiss confocal laser microscope. GFP was visualised following excitation with the argon laser at 488 nm excitation wavelength and the DsRed was visualised following excitation with the helium neon laser at 543 nm wavelength for excitation. The confocal images were captured on disk and evaluated. In each experiment, multiple fields of cells (n=6-8 with 30-90 cells each) were counted and evaluated for localisation of the signal on the cell surface, in the cytoplasm and in the nucleus.
HEK cells were transfected with DNA encoding D1-NLS-GFP (2 micrograms), and D1-WT (6 micrograms) for 48 hours. […] The medium containing antagonist was changed at 6, 22, 30 and 42 hours after transfection. Control cells received no antagonist treatment.

Test [3] addresses T2, D1-IC1-NLS-GFP (Homo sapiens, UniProt P21728, H53R/I49K/R50K/R52K).
T2 construct: expressed in transfected cells; host or cells: HEK cells
Briefly: D1-IC1-NLS-GFP trafficking, HEK cells. In kind it is cell-based. Particulars: 1 micromolar, 48 hours. An excerpt:
(§1) Nuclei were visualised with DsRED-NUC (2 micrograms). The cells were examined by confocal microscopy.

Test [4] addresses D1-IC3-NLS-GFP (Homo sapiens, UniProt P21728, M262K/S263K). Briefly: D1-IC3-NLS-GFP trafficking, HEK cells. Type of test: cell-based. Particulars: 10 micromolar to 100 nanomolar (four concentrations), 48 hours.
Source text: as §1

The target in test [5] is T3, D1-2NLS-RFP (Homo sapiens, UniProt P21728, A340R/A406K/D336K/E404K/E405R/F337K/R338F).
T3 construct: expressed in transfected cells; host or cells: HEK cells
T3 sequence (P21728 whole entry D336K/F337K/R338F/A340R/E404K/E405R/A406K): as the sequence (P21728 whole entry D336K/F337K/R338F/A340R) above, with E404K, E405R, A406K counted along it
Description: D1-2NLS-RFP trafficking, HEK cells. In kind it is cell-based. Particulars: 10 μM, 48 hours. The protocol: By modifying the construct encoding D1-NLS-RFP, a DNA construct (D1-2NLS-RFP) was created to introduce a second NLS into the carboxyl tail of the dopamine D1 receptor by replacing the KKEEA (SEQ ID NO:171) sequence of the wild type D1 dopamine receptor with the NLS, KKKRK (SEQ ID NO:177).
HEK cells were transfected with DNA encoding this construct (D1-2NLS-RFP), and treated at intervals with the antagonist SCH-23390 (10 μM) as previously described. […] Control cells received no antagonist.

In test [6] the target is T4, HA-D1-NLS (Homo sapiens, UniProt P21728, A340R/D336K/F337K/R338F).
T4 construct: MGYPYDVPDYARTLNTSAMDGTGLVV; expressed in transfected cells; host or cells: HEK cells
T4 sequence (P21728 whole entry D336K/F337K/R338F/A340R): as the sequence (P21728 whole entry D336K/F337K/R338F/A340R) above
Description: HA-D1-NLS cell surface receptor detected by fluorometry. Particulars: removal of SCH 23390 (0.5 micromolar) for the last hour, no agonist. In kind it is cell-based.
Source text: Wells in a multi-well plate were coated with poly-L-ornithine and then plated with 50,000 cells per well. […] Following this, the cells were fixed with paraformaldehyde, and cell surface receptors were detected with a rat anti-HA antibody and then a goat anti-rat antibody conjugated to FITC. The fluorescent signal was detected by fluorometry (Cytofluor).
Wells in a multi-well plate were coated with poly-L-ornithine and then plated with 50,000 cells per well. […] Following this, the cells were fixed with paraformaldehyde, and cell surface receptors were detected with a rat anti-HA antibody and then a goat anti-rat antibody conjugated to FITC. The fluorescent signal was detected by fluorometry (Cytofluor). The results are the average of five wells per experimental condition.
HEK cells were transfected with HA-D1-NLS in a multi-well plate were coated with poly-L-ornithine at a concentration of 50,000 cells per well. […] Following this, the cells were fixed with paraformaldehyde, and cell surface receptors were detected with a rat anti-HA antibody and then a goat anti-rat antibody conjugated to FITC. The fluorescent signal was detected by fluorometry (Cytofluor). The results are the average of five wells per experimental condition.

In test [7] the target is D1-NLS2-GFP (Homo sapiens, UniProt P21728, A335P/A340K/D336K/F337K/F341V/K339R/R338K). Particulars: 1 micromolar, 48 hrs. An excerpt: Nuclei were visualised with DsRed-nuc (2 micrograms). Cells were examined by confocal microscopy.
Sequence of D1-NLS2-GFP (P21728 9-446 A335P/D336K/F337K/R338K/K339R/A340K/F341V limits assumed): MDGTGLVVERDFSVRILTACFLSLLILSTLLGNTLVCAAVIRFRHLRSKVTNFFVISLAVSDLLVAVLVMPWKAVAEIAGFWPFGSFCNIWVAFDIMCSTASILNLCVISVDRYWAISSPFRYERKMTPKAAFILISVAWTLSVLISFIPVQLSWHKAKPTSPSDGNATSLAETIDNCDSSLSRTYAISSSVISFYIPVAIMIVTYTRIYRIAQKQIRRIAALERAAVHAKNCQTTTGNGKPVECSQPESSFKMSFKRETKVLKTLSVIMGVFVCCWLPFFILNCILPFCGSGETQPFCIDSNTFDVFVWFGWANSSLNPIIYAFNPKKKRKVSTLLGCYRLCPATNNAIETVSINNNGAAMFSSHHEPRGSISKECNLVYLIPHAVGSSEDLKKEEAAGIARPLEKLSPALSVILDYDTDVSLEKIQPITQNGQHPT
The target of test [8] is T5, DAT-NLS-RFP (Homo sapiens, UniProt Q01959, C581K/S582R/Y578K).
T5 construct: The full length cDNA encoding the human dopamine transporter (hDAT) was amplified using DAT in pcDNA3 as template; expressed in transfected cells; host or cells: HEK cells
T5 sequence (Q01959 whole entry Y578K/C581K/S582R): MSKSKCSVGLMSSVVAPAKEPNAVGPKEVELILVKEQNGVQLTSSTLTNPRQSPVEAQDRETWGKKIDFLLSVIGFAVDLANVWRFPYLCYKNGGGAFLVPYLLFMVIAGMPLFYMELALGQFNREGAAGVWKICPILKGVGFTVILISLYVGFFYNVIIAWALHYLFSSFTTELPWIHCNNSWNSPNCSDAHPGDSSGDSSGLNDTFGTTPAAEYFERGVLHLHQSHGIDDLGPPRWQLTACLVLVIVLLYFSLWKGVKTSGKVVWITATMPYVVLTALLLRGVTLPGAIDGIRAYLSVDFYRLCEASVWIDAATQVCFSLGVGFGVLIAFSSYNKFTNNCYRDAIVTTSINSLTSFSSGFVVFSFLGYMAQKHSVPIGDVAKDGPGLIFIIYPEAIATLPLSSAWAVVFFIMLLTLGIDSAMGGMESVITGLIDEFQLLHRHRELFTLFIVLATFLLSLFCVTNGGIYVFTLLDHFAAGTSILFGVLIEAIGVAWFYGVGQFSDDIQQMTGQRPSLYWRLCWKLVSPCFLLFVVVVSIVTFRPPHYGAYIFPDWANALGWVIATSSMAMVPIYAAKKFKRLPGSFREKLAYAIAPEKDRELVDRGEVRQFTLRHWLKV
Briefly: DAT-NLS-RFP trafficking to the nucleus, HEK cells. In kind it is cell-based. Particulars: 10 micromolar, 48 hours. Here is the method:
HEK cells were transfected with a DNA construct encoding DAT-NLS-RFP (2 micrograms) and incubated for 48 hours. At 6, 22, 30 and 42 hours after transfection, the cells were treated with cocaine or amphetamine (final concentration 10 micromolar), or left untreated. The cells were examined by confocal microscopy.

In test [9] the target is DAT-NLS-GFP (Homo sapiens, UniProt Q01959, C581K/S582R/Y578K). Briefly: DAT-NLS-GFP translocation, HEK cells. In kind it is cell-based. Particulars: 1 micromolar, 48 hours.
Sequence of DAT-NLS-GFP (Q01959 whole entry Y578K/C581K/S582R): as above
Description: HEK cells were transfected with a DNA construct encoding DAT-NLS-GFP (2 micrograms) and incubated for 48 hours. […] The cells were examined by confocal microscopy.
HEK cells were transfected with a construct encoding DAT-NLS-GFP (2 micrograms) and incubated for 48 hours. […] The cells were examined by confocal microscopy.
Control HEK cells were transfected with DAT-NLS-GFP incubated for 48 hours and not treated with drug.
For test [10], the target named is T6, 5HT1B-NLS-GFP (Homo sapiens, UniProt P28222, D375K/E374K/Q378R).
T6 construct: expressed in transfected cells; host or cells: HEK cells
T6 sequence (P28222 whole entry E374K/D375K/Q378R): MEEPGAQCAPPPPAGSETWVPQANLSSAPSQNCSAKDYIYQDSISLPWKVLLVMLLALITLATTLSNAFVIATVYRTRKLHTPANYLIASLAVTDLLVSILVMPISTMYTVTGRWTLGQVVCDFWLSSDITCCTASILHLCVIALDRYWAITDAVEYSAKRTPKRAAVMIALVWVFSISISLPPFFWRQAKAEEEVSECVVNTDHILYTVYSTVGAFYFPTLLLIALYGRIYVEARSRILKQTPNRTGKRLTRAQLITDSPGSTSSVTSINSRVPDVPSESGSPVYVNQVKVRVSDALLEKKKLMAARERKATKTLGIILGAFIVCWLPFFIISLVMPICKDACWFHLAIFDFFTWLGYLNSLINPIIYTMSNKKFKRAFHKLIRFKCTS
Briefly: 5HT1B-NLS-GFP translocation, HEK cells. In kind it is cell-based. Particulars: 10 micromolar, 48 hours. The protocol: HEK cells were transfected with a DNA construct encoding the serotonin 5HT1B-NLS-GFP (2 micrograms). The cells were transfected with Ds-red-NUC to verify the localisation of the nucleus (1 microgram). Cells were treated with methysergide (10 micromolar), a serotonin receptor antagonist. […] Control cells received no antagonist. The cells were examined by confocal microscopy.

The target of test [11] is T7, Cys-LT2-NLS-GFP (Homo sapiens, UniProt Q9NS75, D314R/E310K/N311K).
T7 construct: expressed in transfected cells; host or cells: HEK cells
T7 sequence (Q9NS75 1-346 E310K/N311K/D314R): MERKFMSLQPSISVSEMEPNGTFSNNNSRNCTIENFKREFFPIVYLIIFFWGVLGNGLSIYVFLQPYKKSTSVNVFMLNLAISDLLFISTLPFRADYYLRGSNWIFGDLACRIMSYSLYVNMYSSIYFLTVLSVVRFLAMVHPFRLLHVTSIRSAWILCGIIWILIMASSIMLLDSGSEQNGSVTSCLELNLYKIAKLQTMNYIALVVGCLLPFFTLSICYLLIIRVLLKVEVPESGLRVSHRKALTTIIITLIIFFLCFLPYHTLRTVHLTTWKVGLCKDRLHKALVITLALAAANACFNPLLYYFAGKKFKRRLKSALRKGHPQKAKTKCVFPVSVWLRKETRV
Description: Cys-LT2-NLS-GFP translocation, HEK cells. Type of test: cell-based. Particulars: 10 micromolar. Here is the method:
The DNA encoding Cys-LT2-NLS-GFP (3 micrograms) was used to transfect HEK cells. These cells were treated with the cysteinyl leukotriene receptor antagonist, montelukast (10 micromolar). […] Control cells received no antagonist. The cells were examined by confocal microscopy.

For test [12], the target named is T1, D1-NLS-GFP. Description: D1-NLS-GFP translocation, long-term agonist treatment, HEK cells. In kind it is cell-based. Particulars: agonist 10 micromolar, 48 hours. The protocol:
The cells were examined by confocal microscopy.
HEK cells were transfected with a DNA construct encoding D1-NLS-GFP (1.5 micrograms of DNA), and incubated with the agonist pergolide (10 micromolar) for 48 hours. […] The cells were examined by confocal microscopy.
Control HEK cells were transfected with a DNA construct encoding D1-NLS-GFP (1.5 micrograms of DNA) and left untreated.

Test [13] addresses T8, D2-NLS-GFP (Homo sapiens, UniProt P14416, E432K/I431K/K435R/R434K).
T8 construct: expressed in transfected cells; host or cells: HEK cells
Briefly: D2-NLS-GFP translocation, HEK cells. Type of test: cell-based. Here is the method: At 6, 22, 30 and 42 hours after transfection, the cells were treated with the antagonists. Cells were incubated 48 hrs after drug treatment and examined by confocal microscopy.

For test [14], the target named is M1-NLS-GFP (Homo sapiens, UniProt P11229, A424K/D427R/R426K). Particulars: 10 micromolar, 48 hours. Here is the method: These cells were treated with iprotropium bromide (10 micromolar). The medium containing antagonist was replaced at 6, 22, 30 and 42 hours after transfection. Control cells received no antagonist treatment. The cells were examined by confocal microscopy.
Sequence of M1-NLS-GFP (P11229 whole entry A424K/R426K/D427R): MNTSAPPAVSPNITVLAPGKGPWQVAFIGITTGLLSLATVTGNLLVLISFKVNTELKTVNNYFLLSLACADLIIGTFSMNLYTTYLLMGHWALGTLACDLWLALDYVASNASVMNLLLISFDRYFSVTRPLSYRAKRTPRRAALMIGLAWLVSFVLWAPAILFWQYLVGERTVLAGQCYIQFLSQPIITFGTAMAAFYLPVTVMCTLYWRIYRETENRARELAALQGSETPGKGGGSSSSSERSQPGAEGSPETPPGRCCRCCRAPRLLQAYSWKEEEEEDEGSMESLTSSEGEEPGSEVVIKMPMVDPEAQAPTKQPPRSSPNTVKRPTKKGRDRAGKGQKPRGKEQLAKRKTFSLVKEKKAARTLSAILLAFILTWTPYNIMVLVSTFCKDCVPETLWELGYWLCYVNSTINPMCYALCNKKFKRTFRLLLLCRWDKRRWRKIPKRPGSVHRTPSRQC

T8 sequence (P14416 whole entry I431K/E432K/R434K/K435R): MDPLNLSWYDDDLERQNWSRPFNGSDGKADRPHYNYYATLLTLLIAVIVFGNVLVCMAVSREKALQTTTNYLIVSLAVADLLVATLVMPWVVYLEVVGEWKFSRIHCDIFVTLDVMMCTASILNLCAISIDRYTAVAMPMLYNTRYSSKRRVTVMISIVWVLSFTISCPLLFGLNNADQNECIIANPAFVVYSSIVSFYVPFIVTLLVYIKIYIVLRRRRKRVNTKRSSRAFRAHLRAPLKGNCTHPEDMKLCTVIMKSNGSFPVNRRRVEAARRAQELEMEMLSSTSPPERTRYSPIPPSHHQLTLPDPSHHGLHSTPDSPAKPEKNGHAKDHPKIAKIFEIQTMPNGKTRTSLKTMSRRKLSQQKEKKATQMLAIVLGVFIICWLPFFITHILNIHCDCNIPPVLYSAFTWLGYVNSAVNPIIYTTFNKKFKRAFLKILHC
T2 sequence (P21728 9-446 I49K/R50K/R52K/H53R limits assumed): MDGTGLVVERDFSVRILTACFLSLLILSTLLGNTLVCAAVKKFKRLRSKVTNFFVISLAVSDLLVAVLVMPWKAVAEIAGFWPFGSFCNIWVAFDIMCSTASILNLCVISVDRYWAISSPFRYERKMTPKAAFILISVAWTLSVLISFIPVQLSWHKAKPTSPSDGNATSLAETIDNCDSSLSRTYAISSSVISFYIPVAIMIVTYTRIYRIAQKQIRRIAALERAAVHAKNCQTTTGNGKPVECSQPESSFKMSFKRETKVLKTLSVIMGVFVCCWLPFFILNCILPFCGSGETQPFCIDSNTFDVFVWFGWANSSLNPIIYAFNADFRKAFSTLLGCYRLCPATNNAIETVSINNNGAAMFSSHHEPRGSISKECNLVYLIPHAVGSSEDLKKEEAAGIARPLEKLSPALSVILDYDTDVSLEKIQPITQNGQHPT
Sequence of D1-IC3-NLS-GFP (P21728 9-446 M262K/S263K limits assumed): as the sequence (P21728 9-446 I49K/R50K/R52K/H53R limits assumed) above, with K41I, K42R, K44R, R45H, M254K, S255K counted along it
Sequence of mu and delta opioid receptors (P35372 whole entry): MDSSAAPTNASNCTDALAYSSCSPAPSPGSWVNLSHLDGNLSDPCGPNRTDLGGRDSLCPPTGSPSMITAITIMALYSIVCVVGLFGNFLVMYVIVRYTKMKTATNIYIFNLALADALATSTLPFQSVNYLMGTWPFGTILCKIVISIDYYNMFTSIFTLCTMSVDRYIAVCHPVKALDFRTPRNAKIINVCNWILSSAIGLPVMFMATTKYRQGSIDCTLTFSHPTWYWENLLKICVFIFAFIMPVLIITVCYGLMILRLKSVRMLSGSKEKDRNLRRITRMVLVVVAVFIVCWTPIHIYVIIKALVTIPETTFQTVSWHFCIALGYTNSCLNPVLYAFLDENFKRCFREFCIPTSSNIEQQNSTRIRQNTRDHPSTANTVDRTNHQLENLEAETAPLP
Sequence of mu and delta opioid receptors (P41143 whole entry): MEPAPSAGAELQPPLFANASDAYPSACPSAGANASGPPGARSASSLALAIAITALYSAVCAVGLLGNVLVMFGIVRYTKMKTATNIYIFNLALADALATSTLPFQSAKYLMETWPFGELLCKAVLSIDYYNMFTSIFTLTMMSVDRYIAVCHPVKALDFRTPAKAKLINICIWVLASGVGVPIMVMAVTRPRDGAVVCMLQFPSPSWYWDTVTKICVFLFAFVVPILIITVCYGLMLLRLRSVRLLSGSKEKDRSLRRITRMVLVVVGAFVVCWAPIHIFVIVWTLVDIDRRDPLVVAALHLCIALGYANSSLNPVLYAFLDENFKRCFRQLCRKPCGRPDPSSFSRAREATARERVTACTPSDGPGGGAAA

`C[C@@H](NC(=O)[C@@H](N)Cc1ccc(O)cc1)C(=O)NCC(=O)N(C)[C@@H](Cc1ccccc1)C(=O)NCCO` [DAMGO]: in [1], the “potency at co-expressed versus individual receptors” value is on record as “reduced potency”.
Regarding `CN1CCc2cc(Cl)c(O)cc2[C@@H](c2ccccc2)C1` [SCH-23390], in test [2] (0.2 μM), the “% cells receptor in nucleus” value was found to be 19%; the “% cells receptor on surface” value was 32%; the “% cells receptor on surface and in nucleus” value is reported as 49%. Moreover, in test [2] (0.5 μM), the “% cells receptor in nucleus” value was 20%; the “% cells receptor on surface” value stood at 36%; the “% cells receptor on surface and in nucleus” value was determined as 44%. Moreover, in test [2] (1 μM), the “% cells receptor in nucleus” value is recorded as 15%; the “% cells receptor on surface” value was 39%; the “% cells receptor on surface and in nucleus” value came to 46%. Also, in test [2] (5 μM), the “% cells receptor in nucleus” value is listed as 12%; the “% cells receptor on surface” value worked out at 46%; the “% cells receptor on surface and in nucleus” value was 42%. Also, in test [2] (10 μM, HEK cells), the “% cells receptor on surface” value stood at 58%; the “% cells receptor on surface and in nucleus” value stood at 32%. Besides, in [3], the “% cells with receptor in the nucleus” value worked out at 23% and the “% cells with receptor on the cell surface or in the cytoplasm” value amounted to 77%. Moreover, in [4], the “% cells with receptor in the nucleus” value is given as 84% and the “% cells with receptor on the surface” value stood at 15%. In addition, in test [5], the “% cells with cell surface label” value was determined as 51% and the “% cells with nuclear label” value amounted to 49%. Moreover, in [6], the “loss of HA-D1-NLS receptors from the cell surface” value was determined as 33%. In test [7], the “% cells with receptor expression in the nucleus” value amounted to 22% and the “% cells with receptor on the cell surface or in cytoplasm” value stood at 78%.
For `CC(N)Cc1ccccc1` (stereo not drawn) [amphetamine], in [8], the “% cells with cell surface or cytoplasmic expression of DAT-NLS-RFP” value was 34%; the “% cells with transporter expression in the nucleus and cytoplasm” value (“% cells … in the nucleus and cytoplasm” for short) was found to be 66%; the “effect on the trafficking of the DAT-NLS-RFP to the nucleus” value is reported as “no inhibitory effect”.
Turning to `COC(=O)[C@H]1[C@@H](OC(=O)c2ccccc2)C[C@@H]2CC[C@H]1N2C` [cocaine], in test [8], the “% cells with cell surface or cytoplasmic expression of DAT-NLS-RFP” value was determined as 75%; the “% cells … in the nucleus and cytoplasm” value is 25%.
On to `OC1(c2ccc(Cl)cc2)c2ccccc2C2=NCCN21` (stereo not drawn) [mazindol], for which, in test [9], the “% cells … in the nucleus and cytoplasm” value was found to be 39%; the “% cells with transporter expression on the cell surface and in cytoplasm” value is on record as 61%.
On to `CC[C@@H](CO)NC(=O)[C@@H]1C=C2c3cccc4c3c(cn4C)C[C@H]2N(C)C1` [methysergide], for which, in [10], the “% cells with cell surface localisation” value turned out to be 62% and the “% cells with receptor in the nucleus” value was 25%.
Regarding `CC(C)(O)c1ccccc1CC[C@@H](SCC1(CC(=O)O)CC1)c1cccc(/C=C/c2ccc3ccc(Cl)cc3n2)c1` [montelukast], in [11], the “% cells with cell surface expression of receptor” value stood at 90% and the “% cells with nuclear localisation of the receptor” value amounted to 10%.
In the case of `CCCN1C[C@H](CSC)C[C@@H]2c3cccc4[nH]cc(c34)C[C@H]21` [perglolide, pergolide], the “% cells with receptor expression at the cell surface” value in test [12] was found to be 59%.
Consider `CCN1CCC[C@H]1CNC(=O)c1c(O)c(Cl)cc(Cl)c1OC` [raclopride], for which, in [13] (10 micromolar, 48 hrs), the “% cells with cell surface labelling” value is given as 80%, the “% cells with cytoplasmic label” value amounted to 15% and the “% cells with nuclear labelling” value came to 5%.
Take (+)butaclamol: in test [13], the “% cells with cell surface labelling” value was determined as 90%, the “% cells with cytoplasmic label” value is given as 5% and the “% cells with nuclear labelling” value is on record as 5%.
For iprotropium bromide, in test [14], the “% cells with receptor expression in the cytoplasm only” value is 17%, the “% cells with receptor expression in the nucleus” value was 11% and the “% cells with receptor expression on the cell surface” value was 72%.
